Several values for one entry are separate records, joined by “and”; a condition that tells them apart may be missing. Equal entries are not always repeated. Where two headings read alike, the source gives them in different places.
How the values were obtained:
Wild type H1N1 NA = Wild type H1N1 NA (Influenza A virus, UniProt P03470); experiment: biochemical
[1] = system: Influenza A virus (A/WSN/33) H1N1; experiment: microbe, parasite or virus in culture; assay type: cell-based; details: for IC50: read-out: IC50 H1N1 (concentration to reduce the CPE of the virus by 50%)
Wild type H5N1 NA = Wild type H5N1 NA (Influenza A virus, UniProt Q6DPL2); experiment: biochemical; assay type: biochemical
Wild type H5N1 NA, sequence (Q6DPL2 whole entry, looked up): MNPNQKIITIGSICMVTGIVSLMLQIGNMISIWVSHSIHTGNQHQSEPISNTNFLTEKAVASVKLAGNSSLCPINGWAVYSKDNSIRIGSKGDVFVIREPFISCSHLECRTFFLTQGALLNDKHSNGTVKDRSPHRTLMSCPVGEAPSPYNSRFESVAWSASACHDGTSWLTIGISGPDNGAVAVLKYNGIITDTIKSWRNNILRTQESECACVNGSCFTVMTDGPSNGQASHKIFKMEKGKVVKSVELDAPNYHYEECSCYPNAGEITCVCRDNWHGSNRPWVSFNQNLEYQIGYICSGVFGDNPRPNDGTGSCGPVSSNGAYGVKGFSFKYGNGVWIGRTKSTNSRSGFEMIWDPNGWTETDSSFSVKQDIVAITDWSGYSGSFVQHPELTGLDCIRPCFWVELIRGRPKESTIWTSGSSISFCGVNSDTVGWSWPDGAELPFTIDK

in vitro = details: dog
Bac-NA^WT H1N1 = Bac-NA^WT H1N1 (Influenza A virus, UniProt P03470); experiment: biochemical
Bac-NA^WT H1N1, sequence (P03470 whole entry, looked up): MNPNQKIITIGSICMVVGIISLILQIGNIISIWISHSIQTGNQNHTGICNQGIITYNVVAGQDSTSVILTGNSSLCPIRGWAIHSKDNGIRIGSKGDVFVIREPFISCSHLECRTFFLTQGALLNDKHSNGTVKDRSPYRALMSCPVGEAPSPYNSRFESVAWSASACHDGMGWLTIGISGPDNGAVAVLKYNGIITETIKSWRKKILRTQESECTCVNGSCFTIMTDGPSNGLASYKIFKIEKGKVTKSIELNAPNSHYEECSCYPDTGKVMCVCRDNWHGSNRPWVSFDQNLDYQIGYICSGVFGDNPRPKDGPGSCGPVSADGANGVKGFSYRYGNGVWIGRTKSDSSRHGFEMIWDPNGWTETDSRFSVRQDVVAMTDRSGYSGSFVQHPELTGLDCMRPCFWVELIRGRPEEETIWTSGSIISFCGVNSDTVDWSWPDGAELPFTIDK

NA = details: cited from earlier work

Wild type H1N1 NA, sequence (P03470 whole entry, looked up): as above

SMILES | IC50 (Wild type H1N1 NA; IC50 Wild type H1N1) | IC50 ([1]; Influenza A virus, MDCK) [µM] | IC50 [1] [µM] | IC50 (Wild type H5N1 NA) [µM] | IC50 (Wild type H5N1 NA; read-out: IC50 Wild type H5N1) [µM] | CC50 (in vitro) [µM] | IC50 (Wild type H1N1 NA; NA inhibition, IC50 H1N1) [µM] | IC50 (Bac-NA^WT H1N1) [µM] | IC50 (NA) [µM] | concentration showing consistent blue color (living cells) in CPE assay [1] [µM]
O=C(Nc1ccc2c(O)cc(S(=O)(=O)O)cc2c1)Nc1ccc2c(O)cc(S(=O)(=O)O)cc2c1 [NSC45174] | < 10 µM and 5.29 µM | 36.5 | 36.5 ± 1.19 | 16.7 ± 1.67 | < 20 | > 100 | – | – | – | –
CC12CCC(O)CC1CCC1C2CCC2(C)C(C3=CC(=O)OC3)CCC12O (stereo not drawn) [BPR1P0008S0] | – | – | – | 2.56 ± 0.2 | – | – | 31.4 ± 7.33 | 2 | – | –
CC1OC(OC2CC(O)C3(CO)C4C(O)CC5(C)C(C6COC(O)C6)CCC5(O)C4CCC3(O)C2)C(O)C(O)C1O (stereo not drawn) [BPR1P0003S0] | – | – | – | 2.62 ± 0.96 | – | – | 37.3 ± 13.4 | 2.18 ± 0.03 | – | –
CCC(CC)O[C@@H]1C=C(C(=O)O)C[C@H](N)[C@H]1NC(C)=O [GS4071, oseltamivir carboxylate, reference compound] | – | – | 0.02 ± 0.0031 | – | – | – | – | – | […] | –
Nc1ccc2c(O)c(/N=N/c3ccc4c(O)cc(S(=O)(=O)O)cc4c3)c(S(=O)(=O)O)cc2c1 [NSC162535] | < 10 µM and 4.49 µM | 61.5 | 61.45 ± 0.17 | 18.7 ± 1.89 | < 20 | > 100 | – | – | – | ≥ 50
CC12CCC(O)CC1CCC1C2CC(O)C2(C)C(C3=CC(=O)OC3)CCC12O (stereo not drawn) [BPR1P0007S0] | – | – | – | 2.49 ± 1.43 | – | – | 36.5 ± 5.02 | 1.79 ± 0.01 | – | –
O=C(Nc1ccc2c(O)c(/N=N/c3ccc4c(O)cc(S(=O)(=O)O)cc4c3)c(S(=O)(=O)O)cc2c1)c1ccccc1 [NSC45609] | < 10 µM and 3.67 µM | 16.5 | 16.5 ± 0.63 | 13 ± 0.78 | < 20 | > 100 | – | – | – | –

— publication PMC5615050 (Scientific Reports, 2017)
